Results: patent US20090105305A1, “Therapeutic Agents - 550” (AstraZeneca AB, priority 2006, published 2009)

What follows are compounds tested against T1, human Fatty Acid Synthase (Homo sapiens, UniProt P49327) (assay: Human FAS enzyme assay (decrease in NADPH fluorescence)). Conditions: % inhibition at a concentration of 100 micromolar.
T1 construct: made in house
Type: biochemical
Summary of the method: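 In-house human FAS (0.4 μg) was preincubated 15 min at RT with compound and NADPH (added at 166.6 μM) in 0.1 M Tris pH 7.5, 1 mM glutathione, 0.05% BSA. Malonyl-/acetyl-CoA (500/150 μM in substrate mix) was then added for 60 min. Readout was NADPH fluorescence loss (ex 340/em 460) over a time-zero read, with IC50 from a sigmoid fit.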

T1 sequence (P49327 whole entry): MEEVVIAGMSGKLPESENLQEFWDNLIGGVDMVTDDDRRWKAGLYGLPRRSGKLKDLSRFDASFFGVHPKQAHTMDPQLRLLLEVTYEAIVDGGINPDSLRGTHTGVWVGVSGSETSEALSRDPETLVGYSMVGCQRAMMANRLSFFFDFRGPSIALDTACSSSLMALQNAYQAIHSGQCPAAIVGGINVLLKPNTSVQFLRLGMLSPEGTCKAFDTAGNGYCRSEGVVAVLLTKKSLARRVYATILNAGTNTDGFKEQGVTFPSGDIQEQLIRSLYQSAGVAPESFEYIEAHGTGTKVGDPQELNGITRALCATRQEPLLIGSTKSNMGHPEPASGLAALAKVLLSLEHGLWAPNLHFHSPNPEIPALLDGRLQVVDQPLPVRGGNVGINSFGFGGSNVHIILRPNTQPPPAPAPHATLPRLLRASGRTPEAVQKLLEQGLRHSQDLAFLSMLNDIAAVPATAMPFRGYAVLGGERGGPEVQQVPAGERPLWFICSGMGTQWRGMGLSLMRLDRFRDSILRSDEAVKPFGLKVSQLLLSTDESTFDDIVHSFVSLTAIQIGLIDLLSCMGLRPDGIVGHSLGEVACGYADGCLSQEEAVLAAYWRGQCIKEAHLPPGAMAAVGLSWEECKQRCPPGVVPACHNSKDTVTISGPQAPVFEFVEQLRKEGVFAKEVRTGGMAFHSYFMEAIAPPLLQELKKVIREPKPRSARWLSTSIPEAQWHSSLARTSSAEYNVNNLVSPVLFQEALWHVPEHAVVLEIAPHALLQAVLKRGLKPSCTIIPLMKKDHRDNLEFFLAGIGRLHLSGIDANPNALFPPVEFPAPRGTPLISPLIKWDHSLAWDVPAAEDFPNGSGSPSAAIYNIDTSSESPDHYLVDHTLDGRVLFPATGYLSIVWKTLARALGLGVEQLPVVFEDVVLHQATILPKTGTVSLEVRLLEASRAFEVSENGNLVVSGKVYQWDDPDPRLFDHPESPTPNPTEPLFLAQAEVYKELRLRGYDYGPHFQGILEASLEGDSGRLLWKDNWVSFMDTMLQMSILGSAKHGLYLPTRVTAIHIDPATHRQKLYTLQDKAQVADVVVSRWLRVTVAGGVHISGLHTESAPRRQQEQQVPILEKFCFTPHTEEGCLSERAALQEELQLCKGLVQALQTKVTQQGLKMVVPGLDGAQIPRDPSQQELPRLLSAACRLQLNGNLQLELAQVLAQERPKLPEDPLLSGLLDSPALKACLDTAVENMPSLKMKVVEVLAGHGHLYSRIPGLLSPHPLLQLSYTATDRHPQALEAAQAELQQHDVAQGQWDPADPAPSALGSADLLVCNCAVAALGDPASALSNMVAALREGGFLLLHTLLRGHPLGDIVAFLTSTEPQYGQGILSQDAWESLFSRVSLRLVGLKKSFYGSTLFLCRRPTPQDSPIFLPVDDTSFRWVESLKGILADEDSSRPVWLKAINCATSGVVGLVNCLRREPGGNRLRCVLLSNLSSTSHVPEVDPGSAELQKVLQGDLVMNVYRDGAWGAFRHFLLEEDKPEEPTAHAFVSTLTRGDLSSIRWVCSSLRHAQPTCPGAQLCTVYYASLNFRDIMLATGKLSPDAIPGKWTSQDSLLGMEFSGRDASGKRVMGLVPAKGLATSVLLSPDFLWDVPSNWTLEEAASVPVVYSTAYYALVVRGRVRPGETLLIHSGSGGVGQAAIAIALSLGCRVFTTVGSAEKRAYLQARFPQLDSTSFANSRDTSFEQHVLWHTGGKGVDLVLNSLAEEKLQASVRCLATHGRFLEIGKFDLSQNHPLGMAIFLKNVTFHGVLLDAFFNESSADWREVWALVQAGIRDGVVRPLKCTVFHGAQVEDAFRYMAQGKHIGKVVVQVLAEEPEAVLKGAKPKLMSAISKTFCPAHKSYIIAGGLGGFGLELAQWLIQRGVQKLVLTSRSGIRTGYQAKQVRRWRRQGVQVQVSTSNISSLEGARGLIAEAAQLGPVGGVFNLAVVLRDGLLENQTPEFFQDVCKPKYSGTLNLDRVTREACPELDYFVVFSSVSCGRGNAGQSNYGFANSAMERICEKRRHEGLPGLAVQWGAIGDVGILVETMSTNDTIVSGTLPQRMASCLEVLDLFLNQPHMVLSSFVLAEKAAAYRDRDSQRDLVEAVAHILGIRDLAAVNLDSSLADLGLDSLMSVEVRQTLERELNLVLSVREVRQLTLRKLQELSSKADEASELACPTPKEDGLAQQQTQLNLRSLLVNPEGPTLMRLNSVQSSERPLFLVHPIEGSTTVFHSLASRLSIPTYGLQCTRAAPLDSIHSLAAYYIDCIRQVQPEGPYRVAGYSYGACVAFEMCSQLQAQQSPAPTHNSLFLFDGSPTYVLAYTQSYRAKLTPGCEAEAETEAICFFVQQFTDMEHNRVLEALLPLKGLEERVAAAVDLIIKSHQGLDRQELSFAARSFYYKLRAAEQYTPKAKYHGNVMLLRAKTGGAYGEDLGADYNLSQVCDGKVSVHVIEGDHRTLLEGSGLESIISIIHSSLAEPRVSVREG

SMILES	inhibition at 100 µM [%]
CCCC(C)S(=O)(=O)Nc1ccc(C)c(C(=O)N2CCC(c3ccc(C#N)cc3)CC2)c1 (stereo not drawn) [Example 59, N-[3-[4-(4-cyanophenyl)piperidine-1-carbonyl]-4-methyl-phenyl]pentane-2-sulfonamide]	89
Cc1ccc(C(=O)N2CCC(c3ccc(C#N)cc3)CC2)cc1NS(=O)(=O)C1CCN(C(C)C)CC1 [Example 120, N-[5-[4-(4-cyanophenyl)piperidine-1-carbonyl]-2-methyl-phenyl]-1-propan-2-yl-piperidine-4-sulfonamide]	94
Cc1ccc(C(=O)N2CCC(c3ccc(C#N)cc3)CC2)cc1NS(=O)(=O)c1cccc(C(=O)N2CCOCC2)c1 [Example 97, N-[5-[4-(4-cyanophenyl)piperidine-1-carbonyl]-2-methyl-phenyl]-3-(morpholine-4-carbonyl)benzenesulfonamide]	88
Cc1ccc(C(=O)N2CCC(c3ccc(-c4ccccn4)cc3)CC2)cc1NS(C)(=O)=O [Example 173, N-[2-methyl-5-[4-(4-pyridin-2-ylphenyl)piperidine-1-carbonyl]phenyl]methanesulfonamide]	64
Cc1ccc(C(=O)N2CCC(c3ccc(C#N)cc3)CC2)cc1NS(=O)(=O)c1ccc(Cl)s1 [Example 19, 5-chloro-N-[5-[4-(4-cyanophenyl)piperidine-1-carbonyl]-2-methyl-phenyl]thiophene-2-sulfonamide]	96
Cc1ccc(C(=O)N2CCC(c3ccc(C#N)cc3)CC2)cc1NS(=O)(=O)c1cccc(C(=O)NC(C)C)c1 [Example 85, 3-[[5-[4-(4-cyanophenyl)piperidine-1-carbonyl]-2-methyl-phenyl]sulfamoyl]-N-propan-2-yl-benzamide]	95
COC(=O)CS(=O)(=O)Nc1cc(C(=O)N2CCC(c3ccc(C#N)cc3)CC2)ccc1C [Example 13, methyl 2-[[5-[4-(4-cyanophenyl)piperidine-1-carbonyl]-2-methyl-phenyl]sulfamoyl]acetate]	76
Cc1ccc(C(=O)N2CCC(c3ccc(C#N)cc3)CC2)cc1NS(=O)(=O)c1ccccc1F [Example 2, N-[5-[4-(4-cyanophenyl)piperidine-1-carbonyl]-2-methyl-phenyl]-2-fluoro-benzenesulfonamide]	82
Cc1ccc(C(=O)N2CCC(c3ccc(CNC(=O)CC(C)C)cc3)CC2)cc1NS(C)(=O)=O [Example 236, N-[[4-[1-(3-methanesulfonamido-4-methylbenzoyl)piperidin-4-yl]phenyl]methyl]-3-methylbutanamide]	59.8
Cc1ccc(C(=O)N2CCC(c3ccc(C#N)cc3)CC2)cc1NS(=O)(=O)c1c(C)nn(C)c1C [Example 152, N-[5-[4-(4-cyanophenyl)piperidine-1-carbonyl]-2-methyl-phenyl]-1,3,5-trimethyl-pyrazole-4-sulfonamide]	87
Cc1ccc(C(=O)N2CCC(c3ccc(C#N)cc3)CC2)cc1NS(=O)(=O)C1CCN(C)CC1 [Example 125, N-[5-[4-(4-cyanophenyl)piperidine-1-carbonyl]-2-methyl-phenyl]-1-methyl-piperidine-4-sulfonamide]	98
Cc1ccc(C(=O)N2CCC(c3ccc(C#N)cc3)CC2)cc1NS(=O)(=O)CCC(=O)O [Example 151, 3-[[5-[4-(4-cyanophenyl)piperidine-1-carbonyl]-2-methyl-phenyl]sulfamoyl]propanoic acid]	81
Cc1ccc(C(=O)N2CCC(c3ccc(C#N)cc3)CC2)cc1NS(=O)(=O)CCO [Example 109, N-[5-[4-(4-cyanophenyl)piperidine-1-carbonyl]-2-methyl-phenyl]-2-hydroxy-ethanesulfonamide]	94
Cc1ccc(C(=O)N2CCC(c3ccc(C#N)cc3)CC2)cc1NS(=O)(=O)Cc1ccc(S(C)(=O)=O)cc1 [Example 62, N-[5-[4-(4-cyanophenyl)piperidine-1-carbonyl]-2-methyl-phenyl]-1-(4-methylsulfonylphenyl)methanesulfonamide]	82
COC(=O)CCS(=O)(=O)Nc1cc(C(=O)N2CCC(c3ccc(C#N)cc3)CC2)ccc1C [Example 144, Methyl 3-[[5-[4-(4-cyanophenyl)piperidine-1-carbonyl]-2-methyl-phenyl]sulfamoyl]propanoate]	88

More lines, now with the values ahead:

inhibition at 100 µM [%]	SMILES
83	CC(=O)NCc1ccc(C2CCN(C(=O)c3ccc(C)c(NS(C)(=O)=O)c3)CC2)cc1 [Example 164, N-[[4-[1-(3-methanesulfonamido-4-methylbenzoyl)piperidin-4-yl]phenyl]methyl]acetamide]
94	Cc1ccc(C(=O)N2CCC(c3ccc(C#N)cc3)CC2)cc1NS(=O)(=O)C1CCCCC1 [Example 17, N-[5-[4-(4-cyanophenyl)piperidine-1-carbonyl]-2-methyl-phenyl]cyclohexanesulfonamide]
104	COC(=O)CS(=O)(=O)NCc1ccc(C2CCN(C(=O)c3ccc(C)c(NS(C)(=O)=O)c3)CC2)cc1 [Example 245, Methyl 2-[[4-[1-(3-methanesulfonamido-4-methylbenzoyl)piperidin-4-yl]phenyl]methylsulfamoyl]acetate]
89	Cc1ccc(C(=O)N2CCC(c3ccc(C#N)cc3)CC2)cc1NS(=O)(=O)CC(=O)N1CCOCC1 [Example 88, N-[5-[4-(4-cyanophenyl)piperidine-1-carbonyl]-2-methyl-phenyl]-2-morpholin-4-yl-2-oxo-ethanesulfonamide]
95	CC(=O)NCCS(=O)(=O)Nc1cc(C(=O)N2CCC(c3ccc(C#N)cc3)CC2)ccc1C [Example 78, N-[2-[[5-[4-(4-cyanophenyl)piperidine-1-carbonyl]-2-methyl-phenyl]sulfamoyl]ethyl]acetamide]
81.8	CNC(=O)NCc1ccc(C2CCN(C(=O)c3ccc(C)c(NS(C)(=O)=O)c3)CC2)cc1 [Example 233, 1-[[4-[1-(3-methanesulfonamido-4-methylbenzoyl)piperidin-4-yl]phenyl]methyl]-3-methylurea]
81	Cc1ccc(C(=O)N2CCC(c3ccc(C#N)cc3)CC2)cc1NS(=O)(=O)c1ccc(=O)[nH]c1 [Example 102, N-[5-[4-(4-cyanophenyl)piperidine-1-carbonyl]-2-methyl-phenyl]-6-oxo-1H-pyridine-3-sulfonamide]
74	Cc1ccc(C(=O)N2CCC(c3ccc(CS(C)(=O)=O)cc3)CC2)cc1NS(C)(=O)=O [Example 223, N-[2-methyl-5-[4-[4-(methylsulfonylmethyl)phenyl]piperidine-1-carbonyl]phenyl]-methanesulfonamide]
93	Cc1ccc(C(=O)N2CCC(c3ccc(C#N)cc3)CC2)cc1NS(=O)(=O)CC1CCCCC1 [Example 15, N-[5-[4-(4-cyanophenyl)piperidine-1-carbonyl]-2-methyl-phenyl]-1-cyclohexyl-methanesulfonamide]
93	Cc1ccc(C(=O)N2CCC(c3ccc(C#N)cc3)CC2)cc1NS(=O)(=O)c1cccc(C(=O)N(C)C)c1 [Example 82, 3-[[5-[4-(4-cyanophenyl)piperidine-1-carbonyl]-2-methyl-phenyl]sulfamoyl]-N,N-dimethyl-benzamide]

Same assay, conditions: compounds excluded from the claims by proviso

SMILES	IC50s in the range of about 0.001 μM to about 30 μM
Cc1ccc(C(=O)N2CCC(c3ccc(N4CCCC4=O)cc3)CC2)cc1NS(C)(=O)=O [N-[2-methyl-5-[4-[4-(2-oxopyrrolidin-1-yl)phenyl]piperidine-1-carbonyl]phenyl]methanesulfonamide]	do not have IC50s in the range of about 0.001 μM to about 30 μM
Cc1ccc(C(=O)N2CCC(c3ccc(CC(N)=O)cc3)CC2)cc1NS(C)(=O)=O [2-[4-[1-(3-methanesulfonamido-4-methylbenzoyl)piperidin-4-yl]phenyl]acetamide]	do not have IC50s in the range of about 0.001 μM to about 30 μM
Cc1ccc(C(=O)N2CCC(c3ccc(S(=O)(=O)N4CCN(C)CC4)cc3)CC2)cc1NS(C)(=O)=O [N-[2-methyl-5-[4-[4-(4-methylpiperazin-1-yl)sulfonylphenyl]piperidine-1-carbonyl]phenyl]methanesulfonamide]	do not have IC50s in the range of about 0.001 μM to about 30 μM
Cc1ccc(C(=O)N2CCC(c3ccc(C#N)c(C(F)(F)F)c3)CC2)cc1NS(C)(=O)=O [N-[5-[4-[4-cyano-3-(trifluoromethyl)phenyl]piperidine-1-carbonyl]-2-methylphenyl]methanesulfonamide]	do not have IC50s in the range of about 0.001 μM to about 30 μM
C#Cc1cccc(C2CCN(C(=O)c3ccc(C)c(NS(C)(=O)=O)c3)CC2)c1 [N-[5-[4-(3-ethynylphenyl)piperidine-1-carbonyl]-2-methylphenyl]methanesulfonamide]	do not have IC50s in the range of about 0.001 μM to about 30 μM
Cc1ccc(C(=O)N2CCC(c3ccc(CN)cc3)CC2)cc1NS(C)(=O)=O [N-[5-[4-[4-(aminomethyl)phenyl]piperidine-1-carbonyl]-2-methylphenyl]methanesulfonamide]	do not have IC50s in the range of about 0.001 μM to about 30 μM
Cc1ccc(C(=O)N2CCC(c3ccc(C#CC(C)(C)N)cc3)CC2)cc1NS(C)(=O)=O [N-[5-[4-[4-(3-amino-3-methylbut-1-ynyl)phenyl]piperidine-1-carbonyl]-2-methylphenyl]methanesulfonamide]	do not have IC50s in the range of about 0.001 μM to about 30 μM

Same assay, conditions: unit inferred

SMILES	IC50 [nM]
Cc1ccc(C(=O)N2CCC(c3ccc(C#CCCCO)cc3)CC2)cc1NS(C)(=O)=O [Example 250, N-[5-[4-[4-(5-hydroxypent-1-ynyl)phenyl]piperidine-1-carbonyl]-2-methylphenyl]methanesulfonamide]	1440
